Consider 19 compounds from ChEMBL document CHEMBL3351906, “Bioactive triterpenoid saponins and phenolic compounds against glioma cells” (Bioorg Med Chem Lett, 2014).

The subject of test [1] is U-251. As to the kind of experiment: Inhibition of cell proliferation of human U251 cells assessed as cell viability at 100 uM after 72 hrs by sulforhodamine B assay. The test is classed as functional. The conditions noted are these: U-251, 72 h, read-out: Activity.
The next test concerns U-87MG ATCC. The test is described as follows: Inhibition of cell proliferation of human U87MG cells assessed as cell viability after 72 hrs by sulforhodamine B assay. The test is classed as functional, cell-based.
In test [2] the test system is C6. The test is described as follows: Inhibition of cell proliferation of rat C6 cells assessed as cell viability after 72 hrs by sulforhodamine B assay. The test is classed as functional, cell-based. The conditions noted are these: for pIC50: C6, 72 h.
The subject of test [3] is C6. The test is described as follows: Inhibition of cell proliferation of rat C6 cells assessed as cell viability at 100 uM after 72 hrs by sulforhodamine B assay. The conditions noted are these: C6, 72 h, read-out: Activity. The format is functional. (The SRB assay estimates cell density from bound dye.)
The subject of test [4] is U-251. As to the kind of experiment: Inhibition of cell proliferation of human U251 cells assessed as cell viability after 72 hrs by sulforhodamine B assay. The test is classed as functional, cell-based. The conditions noted are these: for pIC50: U-251, 72 h.

pIC50: −log10 of the molar value. The source made the active and inactive calls. The rule behind the calls is not given here.

As for `C[C@@H]1O[C@@H](O[C@H]2[C@H](OC(=O)[C@]34CCC(C)(C)C[C@H]3C3=CC[C@@H]5[C@@]6(C)CC[C@H](O[C@@H]7O[C@H](CO[C@@H]8OC[C@H](O)[C@H](O)[C@H]8O[C@@H]8OC[C@@H](O)[C@H](O)[C@H]8O)[C@@H](O)[C@H](O)[C@H]7O)C(C)(C)[C@@H]6CC[C@@]5(C)[C@]3(C)C[C@H]4O)O[C@H](CO)[C@@H](O)[C@@H]2O)[C@H](O[C@@H]2O[C@H](CO)[C@H](O)[C@H](O)[C@H]2O)[C@H](O)[C@H]1O[C@@H]1OC[C@@H](O)[C@H](O[C@@H]2OC[C@@H](O)[C@H](O)[C@H]2O)[C@H]1O`, the figures for the viability at 100 µM in the test with U-251 [1] and in the test on C6 [3] were 130% and 61.5%, respectively. Besides, the inhibition entry in the test on U-87MG ATCC, in the test with C6 [2] and in the test on U-251 [4] was “inactive” throughout.

Consider `CC(=O)Oc1cc(CCOC(=O)CCc2ccc(O)c(OC(C)=O)c2)ccc1O`, for which the viability at 100 µM in the test on U-251 [1] came to 39.8%. Besides, the results for the pIC50 with C6 [2] and in the test on U-251 [4] were 5.07 and 4.57, respectively.

As to `C=C[C@@](C)(O)CC/C=C(\CO)C(=O)OC[C@H]1O[C@@H](OC(=O)[C@]23CCC(C)(C)C[C@H]2C2=CC[C@@H]4[C@@]5(C)CC[C@H](O[C@@H]6O[C@H](CO[C@@H]7OC[C@H](O)[C@H](O)[C@H]7O[C@@H]7OC[C@@H](O)[C@H](O)[C@H]7O)[C@@H](O)[C@H](O)[C@H]6O)C(C)(C)[C@@H]5CC[C@@]4(C)[C@]2(C)C[C@H]3O)[C@H](O[C@@H]2O[C@@H](C)[C@H](O[C@@H]3OC[C@@H](O)[C@H](O[C@@H]4OC[C@@H](O)[C@H](O)[C@H]4O)[C@H]3O)[C@@H](O)[C@H]2O[C@@H]2O[C@H](CO)[C@H](O)[C@H](O)[C@H]2O)[C@@H](O)[C@@H]1O`, in the test with U-251 [1], the viability at 100 µM came out at 28.6%. Besides, the negative logarithm of the IC50 (pIC50) with C6 [2] was 4.74; in the test with U-251 [4], 4.72.

Consider `C/C=C(\C)C(=O)O[C@H]1[C@H](O)[C@]2(COC(C)=O)[C@H](O)C[C@]3(C)C(=CC[C@@H]4[C@@]5(C)CC[C@H](O[C@@H]6O[C@H](C(=O)OC)[C@@H](O[C@@H]7O[C@H](CO)[C@@H](O)[C@H](O)[C@H]7O)[C@H](O)[C@H]6O[C@@H]6O[C@H](CO)[C@@H](O)[C@H](O)[C@H]6O)[C@](C)(CO)[C@@H]5CC[C@]43C)[C@@H]2CC1(C)C`, for which the viability at 100 µM in the test on U-251 [1] was found to be 26.2%. Besides, the pIC50 with C6 [2] was 4.22; with U-251 [4], 4.32.

With `C/C=C(\C)C(=O)O[C@H]1[C@H](O)[C@]2(COC(C)=O)[C@H](O)C[C@]3(C)C(=CC[C@@H]4[C@@]5(C)CC[C@H](O[C@@H]6O[C@H](C(=O)O)[C@@H](O[C@@H]7O[C@H](CO)[C@@H](O)[C@H](O)[C@H]7O)[C@H](O)[C@H]6O[C@@H]6O[C@H](CO)[C@@H](O)[C@H](O)[C@H]6O)[C@](C)(CO)[C@@H]5CC[C@]43C)[C@@H]2CC1(C)C` [ISOESCIN IA], the viability at 100 µM with U-251 [1] is 61.1%. Besides, the pIC50 in the test on C6 [2] was 4.26; in the test with U-251 [4], 4.09.

For `O=C(CCc1ccc(O)c(O)c1)OCCc1ccc(O)c(O)c1`, in the test with U-251 [1], the viability at 100 µM was determined as 55%. The pIC50 was 5.21 with C6 [2] and 4.61 in the test with U-251 [4].

With `C=CC(C)(O)CC/C=C(\CO)C(=O)O[C@H]1[C@H](O)[C@@H](COC(=O)/C(C)=C/CC[C@](C)(O)C=C)O[C@@H](OC(=O)[C@]23CCC(C)(C)C[C@H]2C2=CC[C@@H]4[C@@]5(C)CC[C@H](O[C@@H]6O[C@H](CO[C@@H]7OC[C@H](O)[C@H](O)[C@H]7O[C@@H]7OC[C@@H](O)[C@H](O)[C@H]7O)[C@@H](O)[C@H](O)[C@H]6O)C(C)(C)[C@@H]5CC[C@@]4(C)[C@]2(C)CC3)[C@@H]1O[C@@H]1O[C@@H](C)[C@H](O[C@@H]2OC[C@@H](O)[C@H](O[C@@H]3OC[C@@H](O)[C@H](O)[C@H]3O)[C@H]2O)[C@@H](O)[C@H]1O` (some centres undefined), the viability at 100 µM in the test with U-251 [1] was found to be 9.84%. Also, the negative logarithm of the IC50 (pIC50) was 4.87 in the test with C6 [2] and 4.82 with U-251 [4].

Take `CC(=O)Oc1ccc(CCOC(=O)CCc2ccc(OC(C)=O)c(OC(C)=O)c2)cc1OC(C)=O`: the viability at 100 µM in the test with U-251 [1] was found to be 43.5%. The pIC50 in the test on C6 [2] is 4.89; in the test on U-251 [4], 4.43.

Regarding `C=C[C@@](C)(O)CC/C=C(\C)C(=O)O[C@H]1[C@H](OC[C@H]2O[C@@H](OC(=O)[C@]34CCC(C)(C)C[C@@H]3C3=CC[C@@H]5[C@@]6(C)CC[C@H](O[C@@H]7O[C@H](CO[C@@H]8OC[C@H](O)[C@H](O)[C@H]8O[C@@H]8OC[C@@H](O)[C@H](O)[C@H]8O)[C@@H](O)[C@H](O)[C@H]7O)C(C)(C)[C@@H]6CC[C@@]5(C)[C@]3(C)C[C@H]4O)[C@H](O[C@@H]3O[C@@H](C)[C@H](O[C@@H]4OC[C@@H](O)[C@H](O[C@@H]5OC[C@@H](O)[C@H](O)[C@H]5O)[C@H]4O)[C@@H](O)[C@H]3O)[C@@H](O)[C@@H]2O)O[C@@H](C)[C@H](O)[C@H]1OC(=O)/C(=C/CC[C@](C)(O)C=C)CO` [GLEDITSIA SAPONIN C], the viability at 100 µM in the test with U-251 [1] amounted to 34.9%. Further, the pIC50 with C6 [2] is 4.76; with U-251 [4] it was 4.33.

With `O=c1c(O)c(-c2ccc(O)c(O)c2)oc2cc(O)cc(O)c12` [QUERCETIN], the viability at 100 µM with U-251 [1] was 62.9%. Further, the pIC50 in the test on C6 [2] was 4.74; in the test with U-251 [4] it was 4.11.

Regarding `C/C=C(/C)C(=O)O[C@H]1[C@H](O)[C@]2(COC(C)=O)[C@H](O)C[C@]3(C)C(=CC[C@@H]4[C@@]5(C)CC[C@H](O[C@@H]6O[C@H](C(=O)O)[C@@H](O[C@@H]7O[C@H](CO)[C@@H](O)[C@H](O)[C@H]7O)[C@H](O)[C@H]6O[C@@H]6O[C@H](CO)[C@@H](O)[C@H](O)[C@H]6O)[C@](C)(CO)[C@@H]5CC[C@]43C)[C@@H]2CC1(C)C` [ISOESCIN IB], in the test on U-251 [1], the viability at 100 µM is 29.7%. In addition, the figures for the pIC50 in the test on C6 [2] and in the test with U-251 [4] were 4.11 and 4.16, respectively.

With `C=CC(C)(O)CC/C=C(\CO)C(=O)OC[C@H]1O[C@@H](OC(=O)[C@]23CCC(C)(C)C[C@H]2C2=CC[C@@H]4[C@@]5(C)CC[C@H](O[C@@H]6O[C@H](CO[C@@H]7OC[C@H](O)[C@H](O)[C@H]7O[C@@H]7OC[C@@H](O)[C@H](O)[C@H]7O)[C@@H](O)[C@H](O)[C@H]6O)C(C)(C)[C@@H]5CC[C@@]4(C)[C@]2(C)CC3)[C@H](O[C@@H]2O[C@@H](C)[C@H](O[C@@H]3OC[C@@H](O)[C@H](O[C@@H]4OC[C@@H](O)[C@H](O)[C@H]4O)[C@H]3O)[C@@H](O)[C@H]2O)[C@@H](O)[C@@H]1O` (some centres undefined), the viability at 100 µM with U-251 [1] was 32.9%. Besides, the pIC50 was 4.50 with C6 [2] and 4.35 in the test with U-251 [4].

Take `CC(C)=CCC[C@@H](C)[C@H]1CC[C@]2(C)[C@@H]1[C@H](O)C[C@@H]1[C@@]3(C)CC[C@H](O)C(C)(C)[C@@H]3[C@@H](O)C[C@]12C`: the viability at 100 µM in the test on U-251 [1] worked out at 49.4%. Besides, the pIC50 in the test with C6 [2] was 4.30; with U-251 [4], 3.93.

On to `CC(C)=CCC[C@](C)(O[C@@H]1O[C@H](CO)[C@@H](O)[C@H](O)[C@H]1O)[C@H]1CC[C@]2(C)[C@@H]1[C@H](O)C[C@@H]1[C@@]3(C)CC[C@H](O[C@@H]4O[C@H](CO)[C@@H](O)[C@H](O)[C@H]4O[C@@H]4O[C@H](CO)[C@@H](O)[C@H](O)[C@H]4O)C(C)(C)[C@@H]3CC[C@]12C` [GINSENOSIDE RD], for which the results for the viability at 100 µM in the test with U-251 [1] and in the test on C6 [3] were 78.4% and 102%, respectively.

For the compound `O=C(/C=C/c1ccc(O)c(O)c1)O[C@@H]1C[C@](O)(C(=O)O)C[C@@H](O)[C@H]1O` [CHLOROGENIC ACID], the viability at 100 µM in the test with U-251 [1] was found to be 56.6%; in the test on C6 [3] it was 77.4%.

On to `C=CC(C)(O)CC/C=C(\CO)C(=O)O[C@H]1[C@H](OC[C@H]2O[C@@H](OC(=O)[C@]34CCC(C)(C)C[C@H]3C3=CC[C@@H]5[C@@]6(C)CC[C@H](O[C@@H]7O[C@H](CO[C@@H]8OC[C@H](O)[C@H](O)[C@H]8O[C@@H]8OC[C@@H](O)[C@H](O)[C@H]8O)[C@@H](O)[C@H](O)[C@H]7O)C(C)(C)[C@@H]6CC[C@@]5(C)[C@]3(C)C[C@H]4O)[C@H](O[C@@H]3O[C@@H](C)[C@H](O[C@@H]4OC[C@@H](O)[C@H](O[C@@H]5OC[C@@H](O)[C@H](O)[C@H]5O)[C@H]4O)[C@@H](O)[C@H]3O)[C@@H](O)[C@@H]2O)O[C@@H](C)[C@H](O)[C@H]1OC(=O)/C(C)=C/CC[C@@](C)(O)C=C` (some centres undefined), for which the viability at 100 µM with U-251 [1] was 29.2%. For the same compound, the pIC50 in the test on C6 [2] was 4.52; in the test with U-251 [4], 4.37.

For the compound `CC(C)=CCC[C@](C)(O[C@@H]1O[C@H](CO[C@@H]2O[C@H](CO)[C@@H](O)[C@H](O)[C@H]2O)[C@@H](O)[C@H](O)[C@H]1O)[C@H]1CC[C@]2(C)[C@@H]1[C@H](O)C[C@@H]1[C@@]3(C)CC[C@H](O[C@@H]4O[C@H](CO)[C@@H](O)[C@H](O)[C@H]4O)C(C)(C)[C@@H]3CC[C@]12C` [GYPENOSIDE XVII], the viability at 100 µM was found to be 86.5% in the test with U-251 [1] and 80.8% with C6 [3].

For the compound `CC(C)=CCC[C@](C)(O[C@@H]1O[C@H](CO[C@H]2O[C@H](CO)[C@@H](O)[C@@H]2O)[C@@H](O)[C@H](O)[C@H]1O)[C@H]1CC[C@]2(C)[C@@H]1[C@H](O)C[C@@H]1[C@@]3(C)CC[C@H](O)C(C)(C)[C@@H]3[C@@H](O)C[C@]12C` [GINSENOSIDE F5], the viability at 100 µM in the test on U-251 [1] amounted to 102%; in the test with C6 [3], 92.8%.

On to `O=C(/C=C/c1ccc(O)c(O)c1)O[C@H]1[C@H](O)C[C@](O)(C(=O)O)C[C@H]1OC(=O)/C=C/c1ccc(O)c(O)c1`, for which the viability at 100 µM was 119% in the test on U-251 [1] and 46% in the test with C6 [3].

For orientation: pIC50 means the IC50 on a negative log10 scale, so that one unit is a factor of ten.
